Laboratory results from ChEMBL document CHEMBL1201862, “PubChem BioAssay data set” (2004).
The source made the active and inactive calls.

Columns and labels:
[1] = target: Voltage-gated inwardly rectifying potassium channel KCNH2 (Homo sapiens, UniProt Q12809); conditions: Potency;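 also: confirmatory quantitative high-throughput screen measuring inhibition of hERG channel activity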
[2] = target: Aryl hydrocarbon receptor (Homo sapiens, UniProt P35869); conditions: Potency;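 also: confirmatory quantitative high-throughput screen measuring activation of the AhR signaling pathway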
[3] = THP-1 cell cytotoxicity, cytotoxicity control, set 6 (AID 602433); assay type: functional; conditions: Mycobacterium tuberculosis
[4] = target: Beta-adrenergic receptor kinase 1 (Homo sapiens, UniProt P25098); test: aptamer displacement from bead-bound GRK2 – biochemical, cherry pick 1, bead flow cytometry, dose response (AID 504500)
[5] = NIH-3T3 fibroblast cytotoxicity, dose response, cytotoxicity control, cell-based, fluorescence, Alamar Blue, secondary assay (AID 2327); assay type: functional;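 also: NIH-3T3 mouse fibroblasts cultured with fluconazole at 8 µg/mL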
[6] = luciferase reporter signal suppression in cells – H4 neuroglioma cells, luminescence, dose response (AID 1990); assay type: functional, cell-based
[7] = alpha-synuclein stem-loop luciferase translation blockers – H4 neuroglioma cells, luminescence, confirmation (AID 1988); assay type: functional, cell-based
[8] = target: E3 ubiquitin-protein ligase XIAP (Homo sapiens, UniProt P98170); test: Counter Screen using XIAP-Bir3 for Chemical Antagonists of Bir1/2 domains of IAP-family anti-apoptotic proteins. [Related pubchem assays (depositor defined):AID1018, AID1449, AID1514, AID1638, AID1749, AID1750, AID488957, AID488963]
Chain of E3 ubiquitin-protein ligase XIAP (P98170 whole entry): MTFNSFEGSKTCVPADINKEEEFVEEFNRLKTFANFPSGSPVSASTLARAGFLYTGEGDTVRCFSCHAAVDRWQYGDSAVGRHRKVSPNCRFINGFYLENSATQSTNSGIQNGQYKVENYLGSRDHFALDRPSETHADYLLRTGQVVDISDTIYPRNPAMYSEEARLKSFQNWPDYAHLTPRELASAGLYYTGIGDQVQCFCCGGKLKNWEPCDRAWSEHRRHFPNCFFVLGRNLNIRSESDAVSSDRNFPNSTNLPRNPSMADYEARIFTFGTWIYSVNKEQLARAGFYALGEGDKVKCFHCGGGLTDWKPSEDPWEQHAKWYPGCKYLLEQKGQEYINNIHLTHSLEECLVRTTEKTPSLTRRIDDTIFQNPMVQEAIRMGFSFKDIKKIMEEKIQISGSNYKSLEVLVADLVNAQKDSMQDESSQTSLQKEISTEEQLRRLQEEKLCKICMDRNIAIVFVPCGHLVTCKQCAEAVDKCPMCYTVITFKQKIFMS

[9] = fluconazole-exposed Candida albicans growth modulators – fluorescence, retest, confirmation (AID 2467); assay type: functional, cell-based
Large T antigen = Large T antigen (Simian virus 40, UniProt P03070); assay type: functional, Betapolyomavirus macacae;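 also: Confirmatory-stage PubChem screen for compounds that inhibit SV40 T antigen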
[10] = target: T1, Beta-2 adrenergic receptor (Homo sapiens, UniProt P07550); test: Dose response for HTS for Beta-2AR agonists via FAP method from Powderset1.; assay type: functional
T1 sequence (P07550 whole entry): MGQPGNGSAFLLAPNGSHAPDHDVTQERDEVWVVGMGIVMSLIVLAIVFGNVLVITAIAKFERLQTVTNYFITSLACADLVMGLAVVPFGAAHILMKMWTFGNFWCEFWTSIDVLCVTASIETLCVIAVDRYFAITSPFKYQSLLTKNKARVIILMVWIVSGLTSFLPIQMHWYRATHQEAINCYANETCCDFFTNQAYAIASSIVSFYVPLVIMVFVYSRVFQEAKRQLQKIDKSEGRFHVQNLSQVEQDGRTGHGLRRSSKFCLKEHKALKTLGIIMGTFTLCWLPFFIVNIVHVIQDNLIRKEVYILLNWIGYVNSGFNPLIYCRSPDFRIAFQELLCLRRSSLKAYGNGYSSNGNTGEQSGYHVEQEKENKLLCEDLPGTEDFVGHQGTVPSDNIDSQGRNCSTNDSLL

[11] = target: T1, Beta-2 adrenergic receptor; test: ADRB2 activation measured by internalization – cell-based, FAP fluorogen, flow cytometry, cherry pick 1, dose response (AID 588763); assay type: functional
[12] = target: Dual specificity protein kinase CLK1 (Homo sapiens, UniProt P49759); test: inhibition of human CLK1 activity – biochemical, cherry-picked samples, selectivity assay for Dyrk1A inhibitor project, dose response (AID 588811)
[13] = Luminescence Cell-Based Dose Response HTS to Identify Inhibitors of 5'UTR Stem-Loop Driven Prion Protein mRNA Translation in H4 Neuroglioblastoma Cells. [Related pubchem assays: 1827 (Project Summary), 1813 (Primary HTS)]; assay type: functional
[14] = NIH3T3 cell viability loss – ATP luminescence, mouse fibroblasts, counter-screen, dose response (AID 2010); assay type: functional, cell-based;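 also: cells exposed to compound for about 90 hours before reading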
[15] = Trypanosoma cruzi growth suppression in host cells – NIH3T3 host cells, beta-gal luminescence, confirmation (AID 2044); assay type: functional, cell-based;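 also: intracellular parasites grown in NIH/3T3 mouse fibroblasts as host cells; luminescent beta-galactosidase reporter signal from transgenic T. cruzi replicating inside host cells; inhibitors lower the luminescence signal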
DNA topoisomerase = DNA topoisomerase (Yersinia pestis, UniProt A0A2S9PM60); test: Yersinia topoisomerase I cleavage product accumulation – biochemical, cherry-pick, dose response (AID 588525)
Chain of DNA topoisomerase (A0A2S9PM60 whole entry): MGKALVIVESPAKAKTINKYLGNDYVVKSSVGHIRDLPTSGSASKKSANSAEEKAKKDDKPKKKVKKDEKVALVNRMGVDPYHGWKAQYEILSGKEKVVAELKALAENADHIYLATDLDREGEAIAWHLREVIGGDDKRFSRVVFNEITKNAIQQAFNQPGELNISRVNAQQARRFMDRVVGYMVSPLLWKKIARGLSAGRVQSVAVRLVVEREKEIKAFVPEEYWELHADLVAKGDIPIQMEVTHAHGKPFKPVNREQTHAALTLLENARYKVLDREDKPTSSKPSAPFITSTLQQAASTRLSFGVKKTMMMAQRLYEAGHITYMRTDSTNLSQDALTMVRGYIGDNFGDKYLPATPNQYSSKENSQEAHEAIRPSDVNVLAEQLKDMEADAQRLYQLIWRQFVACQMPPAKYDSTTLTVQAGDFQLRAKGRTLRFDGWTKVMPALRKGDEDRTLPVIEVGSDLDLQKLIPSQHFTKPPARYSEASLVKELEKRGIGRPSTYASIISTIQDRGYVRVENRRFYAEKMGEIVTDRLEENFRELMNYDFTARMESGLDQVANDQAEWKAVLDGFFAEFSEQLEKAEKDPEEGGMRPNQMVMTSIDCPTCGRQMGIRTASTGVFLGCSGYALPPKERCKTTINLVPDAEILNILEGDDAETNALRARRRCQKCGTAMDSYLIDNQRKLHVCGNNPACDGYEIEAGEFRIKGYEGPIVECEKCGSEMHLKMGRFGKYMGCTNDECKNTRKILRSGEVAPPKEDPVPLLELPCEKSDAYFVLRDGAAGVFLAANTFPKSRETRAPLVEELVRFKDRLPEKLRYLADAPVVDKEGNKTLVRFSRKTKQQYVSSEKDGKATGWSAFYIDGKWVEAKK

[16] = inhibitors acting on PAX2 in cells – cell-based, plate reader, dry powder samples, selectivity assay for PAX8 inhibitor project, dose response (AID 743048); assay type: functional;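 also: HEK293 cells carrying a WT1 promoter luciferase reporter driven by expressed Pax2; potency is for inhibition of Pax2 driven reporter signal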
Streptokinase A = target: T2, Streptokinase A (Streptococcus pyogenes serotype M1, UniProt P10520); test: viability-normalized secreted streptokinase activity reduction – plasminogen activation absorbance, OD405, dose response (AID 1914); assay type: functional, Streptococcus pyogenes M1 GAS;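 also: secreted streptokinase activity via plasminogen activation per viability signal from cell pellet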
T2 sequence (P10520 whole entry): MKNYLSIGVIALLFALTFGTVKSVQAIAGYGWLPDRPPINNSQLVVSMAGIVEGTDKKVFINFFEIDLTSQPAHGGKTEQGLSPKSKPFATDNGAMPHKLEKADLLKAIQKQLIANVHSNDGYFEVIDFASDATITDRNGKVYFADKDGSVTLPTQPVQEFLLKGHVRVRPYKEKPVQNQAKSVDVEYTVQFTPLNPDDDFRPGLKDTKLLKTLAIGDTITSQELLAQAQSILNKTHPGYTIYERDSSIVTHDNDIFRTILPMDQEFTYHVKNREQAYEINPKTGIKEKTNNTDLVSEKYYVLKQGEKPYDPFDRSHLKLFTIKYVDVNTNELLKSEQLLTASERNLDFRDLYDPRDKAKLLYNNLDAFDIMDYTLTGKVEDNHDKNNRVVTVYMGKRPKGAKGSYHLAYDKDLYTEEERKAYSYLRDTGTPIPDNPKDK

[17] = general cell-killing toxicity readout – plate reader, dry powder samples, cytotoxicity control for PAX8 inhibitor project, dose response (AID 743021); assay type: functional, cell-based
BJ [18] = test: growth inhibition of engineered Ras-driven BJ cells – cell-based, alamar blue fluorescence, cherrypicked samples, dose response (AID 2631); assay type: functional; conditions: Homo sapiens;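 also: confirmatory dose-response assay in RAS-dependent BJ fibroblasts engineered with TERT, LT and ST, with cytotoxicity read by fluorescence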
[19] = toxicity toward immortalized ovarian surface epithelium – cell-based, plate reader, dry powder samples, cytotoxicity control for PAX8 inhibitor project, dose response (AID 743045); assay type: functional
[20] = Luminescence-based dose response cell-based high throughput screening assay for cytotoxic compounds using the IEC-6 intestinal epithelial cell line. [Related pubchem assays: 1858 (Summary AID.), 1825 (Counterscreen.), 1907 (Confirmation screen.)]; assay type: functional
[21] = COV362 cell viability loss – plate reader, dry powder, SA12, cytotoxicity control for PAX8 inhibitor project, dose response (AID 743144); assay type: functional, cell-based
BJ [22] = test: BJ-TERT-LT-ST fibroblast viability loss – cell-based, RAS-independent, luminescence, dose response (AID 1935); assay type: functional; conditions: Homo sapiens;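 also: BJ fibroblasts immortalized with TERT plus LT and ST oncogenes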
[23] = COV434 cell viability loss – plate reader, dry powder, SA7, cytotoxicity control for PAX8 inhibitor project, dose response (AID 743145); assay type: functional, cell-based
[24] = HEK-293T viability loss after treatment – luminescence, T-cell screen hits, cytotoxicity control for TCR NF-kB inhibitor project, dose response (AID 489026); assay type: functional, cell-based;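 also: cells exposed to compound about 14 hours before the viability readout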
Jurkat = test: SAR Analysis of small molecule inhibitors of both B-cell and T-cell specific antigen receptor-induced NF-kB activation in a Jurkat cell line using a luminescence assay. [Related pubchem assays (depositor defined):AID435003, AID435022, AID465, AID489029]; assay type: functional, cell-based; conditions: Homo sapiens
BJ [25] = test: cells; assay type: functional, cell-based; conditions: Homo sapiens
[26] = PAX8-dependent cell viability loss – plate reader, dry powder, dose response (AID 743049); assay type: functional, cell-based
Streptococcus = test: GAS UMAA2166 growth inhibition – luminescence, BacTiterGlo, counter-screen for streptokinase expression inhibitor project, dose response (AID 1915); assay type: functional, organism-based;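 also: potency for reduction of bacterial viability or growth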
[27] = system: Streptococcus sp. 'group A'; test: Streptococcus pyogenes SK(-)GAS viability under kanamycin – luminescence, BacTiterGlo, confirmation, counter-screen for streptokinase expression inhibitor project, dose response (AID 1900); assay type: functional, organism-based
BJ [28] = test: BJ-TERT fibroblast viability loss – cell-based, RAS-independent, luminescence, dose response (AID 1933); assay type: functional; conditions: Homo sapiens
[29] = target: T3, Type-1 angiotensin II receptor (Homo sapiens, UniProt P30556); test: antagonism of angiotensin II type 1 receptor – cell-based, uHTS hits, selectivity assay for APJ receptor antagonist project, dose response (AID 463214); assay type: functional;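 also: antagonist potency against angiotensin II stimulated AT1 response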
T3 sequence (P30556 whole entry): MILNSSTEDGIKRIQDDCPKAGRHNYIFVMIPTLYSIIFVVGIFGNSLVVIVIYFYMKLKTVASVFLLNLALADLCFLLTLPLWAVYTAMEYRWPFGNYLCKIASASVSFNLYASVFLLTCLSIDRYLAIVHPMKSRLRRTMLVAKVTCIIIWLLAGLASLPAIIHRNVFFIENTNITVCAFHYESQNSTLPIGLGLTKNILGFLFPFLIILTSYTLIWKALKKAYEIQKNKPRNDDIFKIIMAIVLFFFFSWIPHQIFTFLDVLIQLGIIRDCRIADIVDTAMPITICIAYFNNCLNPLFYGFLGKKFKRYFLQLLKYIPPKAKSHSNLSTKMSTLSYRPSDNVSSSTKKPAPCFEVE

[30] = DRD fibroblast viability loss – cell-based, non-viral oncogenic, luminescence, dose response (AID 1934); assay type: functional; conditions: Homo sapiens
[31] = A2780 cell killing – plate reader, dry powder samples, cytotoxicity control, dose response (AID 743046); assay type: functional, cell-based
Paired box protein Pax-8 = Paired box protein Pax-8 (Homo sapiens, UniProt Q06710); test: PAX8 transcriptional activity inhibition in RMG-I – RMG-I cells, luciferase, cherry-pick, dose response (AID 687027); assay type: functional, cell-based;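 also: luciferase reporter driven by Pax8 target thyroperoxidase promoter measured by SteadyGlo luminescence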
Chain of Paired box protein Pax-8 (Q06710 whole entry): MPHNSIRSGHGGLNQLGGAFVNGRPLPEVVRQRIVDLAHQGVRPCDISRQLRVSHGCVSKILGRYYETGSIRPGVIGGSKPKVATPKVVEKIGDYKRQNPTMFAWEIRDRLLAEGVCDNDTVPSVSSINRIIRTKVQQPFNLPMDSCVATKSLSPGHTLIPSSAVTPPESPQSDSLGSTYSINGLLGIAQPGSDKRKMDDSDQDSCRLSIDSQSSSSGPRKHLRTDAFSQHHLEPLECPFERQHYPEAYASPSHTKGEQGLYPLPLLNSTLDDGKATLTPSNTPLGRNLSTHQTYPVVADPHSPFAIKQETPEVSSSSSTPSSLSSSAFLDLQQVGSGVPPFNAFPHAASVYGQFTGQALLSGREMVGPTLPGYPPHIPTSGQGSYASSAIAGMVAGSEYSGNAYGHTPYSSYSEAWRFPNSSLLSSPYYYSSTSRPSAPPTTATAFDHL

[32] = OV-90 cell viability loss – plate reader, dry powder, SA8, PAX8 inhibitor project, dose response (AID 743149); assay type: functional, cell-based
[33] = IGROV1 cell killing – plate reader, dry powder samples, PAX8 inhibitor project, dose response (AID 743043); assay type: functional, cell-based; conditions: IGROV-1
Beta-galactosidase = Beta-galactosidase (Escherichia coli, UniProt Q8VNN2); test: PubChem AID 485352; assay type: functional
Chain of Beta-galactosidase (Q8VNN2 whole entry): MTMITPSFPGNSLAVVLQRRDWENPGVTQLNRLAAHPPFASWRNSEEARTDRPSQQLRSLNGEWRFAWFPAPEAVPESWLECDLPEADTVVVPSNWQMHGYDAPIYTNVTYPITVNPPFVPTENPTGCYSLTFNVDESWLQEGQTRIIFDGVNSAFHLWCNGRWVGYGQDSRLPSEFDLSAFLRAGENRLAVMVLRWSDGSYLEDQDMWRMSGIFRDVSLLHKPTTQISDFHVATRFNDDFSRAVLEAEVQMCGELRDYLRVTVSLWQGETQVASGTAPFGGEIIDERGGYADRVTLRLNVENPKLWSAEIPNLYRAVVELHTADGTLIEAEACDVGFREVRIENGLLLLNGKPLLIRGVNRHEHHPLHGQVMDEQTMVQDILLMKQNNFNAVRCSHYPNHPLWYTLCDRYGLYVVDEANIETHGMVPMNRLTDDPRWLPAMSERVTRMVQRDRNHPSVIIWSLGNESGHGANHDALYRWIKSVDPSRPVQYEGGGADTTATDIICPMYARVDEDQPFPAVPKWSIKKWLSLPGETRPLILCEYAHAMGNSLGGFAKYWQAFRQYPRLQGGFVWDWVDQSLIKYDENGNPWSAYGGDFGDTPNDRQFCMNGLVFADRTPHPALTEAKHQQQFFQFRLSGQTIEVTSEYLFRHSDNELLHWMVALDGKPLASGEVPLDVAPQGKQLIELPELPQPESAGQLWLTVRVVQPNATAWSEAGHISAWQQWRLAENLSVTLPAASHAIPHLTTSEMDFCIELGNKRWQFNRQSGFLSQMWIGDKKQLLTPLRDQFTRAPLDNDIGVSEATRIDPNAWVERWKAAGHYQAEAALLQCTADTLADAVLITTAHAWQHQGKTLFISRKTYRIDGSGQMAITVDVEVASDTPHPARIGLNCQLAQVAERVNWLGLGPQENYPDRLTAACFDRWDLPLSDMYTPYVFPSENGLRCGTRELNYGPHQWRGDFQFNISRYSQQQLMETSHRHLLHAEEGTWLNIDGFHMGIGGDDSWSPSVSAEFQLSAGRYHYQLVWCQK

HEK293 [34] = test: SAR Analysis of small molecule inhibitors of both B-cell and T-cell specific antigen receptor-induced NF-kB activation in a HEK-293T cell line using a luminescence assay. [Related pubchem assays (depositor defined):AID435003, AID435022, AID465, AID489019, AID489029]; assay type: functional, cell-based; conditions: Homo sapiens
HEK293 [35] = test: HEK293T cell viability loss, resazurin readout – resazurin fluorescence, cytotoxicity control for NF-kB activator project, SAR follow-up (AID 493251); assay type: functional, cell-based; conditions: Homo sapiens
[36] = OVCAR4 cell viability loss – plate reader, dry powder, SA11, cytotoxicity control for PAX8 inhibitor project, dose response (AID 743150); assay type: functional, cell-based; conditions: OVCAR-4
CAAX prenyl protease 2 [37] = target: CAAX prenyl protease 2 (Homo sapiens, UniProt Q9Y256); test: inhibition of Ras-converting CAAX endoprotease – biochemical, plate reader, dry powder samples, dose response (AID 588848)
Chain of CAAX prenyl protease 2 (Homo sapiens, UniProt Q9Y256) (Q9Y256 whole entry): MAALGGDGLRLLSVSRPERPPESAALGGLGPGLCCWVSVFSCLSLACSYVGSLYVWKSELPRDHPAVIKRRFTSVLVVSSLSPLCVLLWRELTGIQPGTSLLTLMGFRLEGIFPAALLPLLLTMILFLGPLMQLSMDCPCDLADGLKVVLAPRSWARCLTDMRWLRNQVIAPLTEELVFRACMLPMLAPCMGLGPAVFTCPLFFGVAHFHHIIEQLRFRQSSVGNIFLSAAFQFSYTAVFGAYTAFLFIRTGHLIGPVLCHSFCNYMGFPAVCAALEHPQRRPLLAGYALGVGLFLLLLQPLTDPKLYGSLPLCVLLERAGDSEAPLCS

CAAX prenyl protease 2 [38] = target: T4, CAAX prenyl protease 2 (Saccharomyces cerevisiae S288c, UniProt Q03530); assay type: biochemical
T4 sequence (Q03530 whole entry): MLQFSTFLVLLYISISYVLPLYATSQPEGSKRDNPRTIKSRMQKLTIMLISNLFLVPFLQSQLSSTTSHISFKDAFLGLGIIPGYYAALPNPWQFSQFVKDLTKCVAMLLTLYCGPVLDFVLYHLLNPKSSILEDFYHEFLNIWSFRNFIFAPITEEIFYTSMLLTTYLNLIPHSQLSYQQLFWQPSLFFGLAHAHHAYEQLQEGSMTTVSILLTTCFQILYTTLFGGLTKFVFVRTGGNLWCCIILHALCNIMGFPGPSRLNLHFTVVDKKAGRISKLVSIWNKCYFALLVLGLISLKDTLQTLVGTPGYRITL

CAAX prenyl protease 2 [39] = target: T4, CAAX prenyl protease 2; test: inhibition of Rce1p peptide cleavage – biochemical, plate reader, dry powder retest, dose response (AID 588851)

Chain of Voltage-gated inwardly rectifying potassium channel KCNH2 (Q12809 whole entry): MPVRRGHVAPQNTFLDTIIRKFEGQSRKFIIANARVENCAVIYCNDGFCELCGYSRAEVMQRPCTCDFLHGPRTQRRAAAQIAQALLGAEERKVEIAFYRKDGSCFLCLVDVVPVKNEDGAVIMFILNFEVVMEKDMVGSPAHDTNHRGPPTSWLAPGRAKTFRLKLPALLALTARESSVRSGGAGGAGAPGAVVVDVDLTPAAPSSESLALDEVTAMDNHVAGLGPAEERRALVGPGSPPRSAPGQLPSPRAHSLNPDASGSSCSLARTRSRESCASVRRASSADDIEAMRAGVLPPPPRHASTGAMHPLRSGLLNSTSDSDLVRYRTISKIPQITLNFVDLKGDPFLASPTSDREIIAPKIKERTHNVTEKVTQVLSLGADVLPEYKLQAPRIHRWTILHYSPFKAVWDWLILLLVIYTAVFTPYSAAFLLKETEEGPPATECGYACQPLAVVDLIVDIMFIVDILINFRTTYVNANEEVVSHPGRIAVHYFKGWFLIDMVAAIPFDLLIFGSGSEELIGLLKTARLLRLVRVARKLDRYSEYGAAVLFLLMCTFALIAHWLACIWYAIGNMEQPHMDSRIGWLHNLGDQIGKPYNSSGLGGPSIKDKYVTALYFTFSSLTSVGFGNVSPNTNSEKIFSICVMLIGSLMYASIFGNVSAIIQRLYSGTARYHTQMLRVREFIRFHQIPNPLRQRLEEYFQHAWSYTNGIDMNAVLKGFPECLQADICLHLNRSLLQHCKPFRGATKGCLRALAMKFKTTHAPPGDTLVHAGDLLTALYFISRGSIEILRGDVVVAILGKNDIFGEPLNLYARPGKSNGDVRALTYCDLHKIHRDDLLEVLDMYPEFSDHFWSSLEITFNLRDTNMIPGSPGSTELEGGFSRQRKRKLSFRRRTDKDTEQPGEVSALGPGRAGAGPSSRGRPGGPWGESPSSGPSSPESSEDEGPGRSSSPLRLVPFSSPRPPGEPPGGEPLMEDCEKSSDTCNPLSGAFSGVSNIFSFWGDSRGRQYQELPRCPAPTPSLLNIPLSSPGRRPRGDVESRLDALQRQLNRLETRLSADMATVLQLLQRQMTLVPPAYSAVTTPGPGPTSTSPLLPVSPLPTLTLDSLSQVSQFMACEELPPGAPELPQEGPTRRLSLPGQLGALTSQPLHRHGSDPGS

For COP(=S)(OC)Oc1ccc(SC)c(C)c1 [FENTHION], the AC50 [1] was 22.4 µM (inconclusive) and the AC50 [2] was 50.1 µM (inconclusive).
With O=C(CSc1nc2ccccc2c(=O)[nH]1)NC1CCOCC1 the CC50 [3] was > 100 µM (inconclusive).
For O=S(=O)(O)c1cc(O)c2c(O)c(N=Nc3cc(Cl)ccc3O)c(S(=O)(=O)O)cc2c1, the EC50 [4] was 16.3 µM (inactive), the EC50 [5] was > 150 µM (inactive) and the EC50 [6] was 13.1 µM (active). The EC50 [7] was 14.8 µM (active), the IC50 [8] was > 20 µM (inactive) and the EC50 [9] was > 38 µM (not active). For the same compound, the IC50 (Large T antigen) was 13.4 µM (active).
For CSc1ccc(CN2CCC(Oc3ccc(C(=O)N4CCCC4)cc3)CC2)cc1, the EC50 [10] was 0.348 µM (active) and the EC50 [11] was 1.39 µM (active).
For CN(C)c1ccc(-c2nccc(NCc3cccs3)n2)cc1, the AC50 [12] was 0.265 µM (active).
In the case of O=C(CSc1nnc(COc2ccc(Cl)cc2)o1)N1c2ccccc2CCc2ccccc21, the EC50 [6] is reported as 23.5 µM (active), the EC50 [13] is reported as 21.5 µM (active) and the EC50 [14] is reported as < 6 µM (inconclusive). For the same compound, the EC50 [7] was 15.2 µM (active), the EC50 [15] was 0.625 µM (active) and the AC50 (DNA topoisomerase) was 10.2 µM (active).
With Cc1ccc2cccc(NS(=O)(=O)c3ccccc3)c2n1 the AC50 [16] was 49.5 µM (active), the EC50 (Streptokinase A) was > 150 µM (not active) and the AC50 [17] was 44 µM (active). For the same compound, the EC50 (BJ [18]) was 5.74 µM (active), the AC50 [19] was 17.3 µM (active) and the IC50 [20] was 0.589 µM (active). For the same compound, the AC50 [21] was 8.75 µM (active), the EC50 (BJ [22]) was > 150 µM (not active) and the AC50 [23] was 10.7 µM (active). For the same compound, the IC50 [24] was > 80 µM (inactive), the IC50 (Jurkat) was 1.21 µM (active) and the EC50 (BJ [25]) was 17.8 µM (active). For the same compound, the AC50 [26] was 15.6 µM (active), the EC50 (Streptococcus) was > 150 µM (not active) and the EC50 [27] was 5.1 µM (active). For the same compound, the EC50 (BJ [28]) was 37.9 µM (active), the IC50 [29] was 2.35 µM (active) and the EC50 [30] was 21.6 µM (active). The AC50 [31] was 20.5 µM (active), the AC50 (Paired box protein Pax-8) was 5.74 µM (active) and the AC50 [32] was 5.65 µM (active). The AC50 [33] was 14 µM (active), the EC50 (Beta-galactosidase) was > 40 µM (inactive) and the IC50 (HEK293 [34]) was > 79 µM (inactive). The IC50 (HEK293 [35]) was > 80 µM (inactive) and the AC50 [36] was 21.1 µM (active).
In the case of CC(C)c1c(C(=O)N/N=C/c2c[nH]c3ccccc23)nnn1-c1nonc1N, the AC50 (CAAX prenyl protease 2 [37]) is reported as 29.3 µM (active), the AC50 (CAAX prenyl protease 2 [38]) is reported as 0.298 µM (active) and the AC50 (CAAX prenyl protease 2 [39]) is reported as 3.14 µM (active).
